Source: patent US8455510B2
Several values for one entry are separate records, joined by “and”; a condition that tells them apart may be missing. Equal entries are not always repeated. Where two headings read alike, the source gives them in different places.

Legend:
[1] = test system: allogeneic antigen-induced mouse spleen lymphocytes; experiment: Mixed lymphocyte culture, 3H-TdR incorporation; assay type: cell-based, C57BL/6 and BALB/C mice; conditions: for inhibition at 0.0001342 µM / inhibition at 0.0003355 µM / inhibition at 0.0008389 µM / inhibition at 0.0020972 µM / inhibition at 0.0052429 µM / inhibition at 0.013107 µM / inhibition at 0.032768 µM / inhibition at 0.0819 µM / inhibition at 0.2048 µM / inhibition at 0.512 µM / inhibition at 1.28 µM / inhibition at 3.2 µM / inhibition at 8 µM / inhibition at 20 µM: Mus musculus, Lymphocyte
Protocol: Preparation of Stimulator Cells: a Cell Suspension of Balb/C Mouse Spleen Lymphocytes was irradiated by cesium 137 at 3000 Rads using a Gamma radiometer (Gammacell 3000) to make the cells lose their proliferation ability. After washed by RPMI-1640 for 2 times, the cell concentration was adjusted to 5×10^6/ml.
Preparation of responder cells: C57BL/6 mouse spleen lymphocytes were used as the responder cells, and the cell concentration was 5×10^6/ml.
Mixed lymphocyte culture: 50 μl cell suspension of C57BL/6 mouse spleen lymphocytes was inoculated on a 96-well plate, and 50 μl cell suspension of BALB/C mouse spleen lymphocytes treated by cesium 137 was added therein, followed by addition of 50 μl compound at different concentrations. The total volume for each well was 200 μl. If the total volume was less than 200 μl, it was supplemented with RMPI-1640 medium. The tests were divided into 3 groups, i.e., BALB/C mouse group, C57BL/6 mouse group and BALB/C and C57BL/6 mice mixed culture group. The test was carried out in triplicate wells for each concentration, and included control wells without the compound, with only the stimulator cells and with only the responder cells. The 96-well plate was incubated in an incubator at 37° C. with 5% CO2 for 3 to 5 days. 8 hours before the end of incubation, 25 μl of ^3H-thymidine (10 μCi/ml) was added in each well. After the incubation was completed, cells were harvested by a cell harvester on a glass fiber film. After addition of a scintillation fluid, the amount of ^3H-TdR incorporated in cell DNA was determined by a Beta cell counter (MicroBeta Trilux, PerkinElmer), and the cell proliferation was represented as a cpm value.

[2] = in vivo; assay type: in vivo; set-up: AUC0-t (ng · h/g or ng · h/ml): concentration or dose not given beside the values
[3] = test system: DNFB-induced delayed type hypersensitivity reaction; experiment: DNFB-induced delayed type hypersensitivity reaction in mice; assay type: in vivo, BALB/c mice; conditions: 1.5 mg/kg/d, intraperitoneal injection; model control 0.175 mm
Protocol: The delayed type hypersensitivity (DTH) reaction in mice was induced by DNFB to evaluate the inhibition effect of the compound on DTH in vivo. […] Preparation method: the compound was dissolved in anhydrous alcohol to prepare a stock solution (50 mg/ml), which was diluted to the desired concentration when use by using a solution of 5% PEG400, 5% Tween-80 in sterile water as a solvent. […] DNFB combined with dermal protein to form a complete antigen after sensitizing on feet of mice. One week later, mice were attacked by DNFB on ears to induce a local delayed allergic reaction, i.e., the delayed type hypersensitivity reaction to cause ear swelling, while the delayed type hypersensitivity reaction would not be observed on the ear which had not been attacked. Therefore, the ear swelling can reflect the level of the delayed type hypersensitivity reaction in mice induced by DNFB. (1) 20 μl of 0.5% DNFB solution in a mixture of acetone and olive oil (4:1) as a solvent was applied on both hind legs of mice for sensitization. […] (4) Thickness of the left and right ears of the mice was measured by a micrometer screw gauge, and the swelling was calculated by subtracting the thickness of the left ear from thickness of the right ear.

[4] = test system: human prostate cancer PC-3 xenograft; experiment: PC-3 xenograft on nude mice; conditions: 1-5 × 3.5 w; for TV (mm3) d0: baseline
[5] = test system: acute graft-versus-host disease (aGVHD); experiment: Acute graft-versus-host disease (aGVHD) mouse model; assay type: in vivo, C57B/6 mice; conditions: 1.5 mg/kg/d, intraperitoneal injection, FIG. 15
Protocol: Donator: BABL/C mice; acceptor: C57B/6 mice.
C57B/6(H-2^b) mice, female, 7 weeks old, were used as the acceptor mice to receive 8.5 Gy of total body irradiation in a Gammacell.
After the acceptor mice received irradiation for 4 to 6 hours, the heterogenetic bone marrow transplantation was carried out.
BABL/C(H-2^d) mice, female, 4 weeks old were used as the donator mice. The bone marrow cells in long bone of the mice limbs and the spleen lymphocytes were collected and suspended in a PBS buffer solution respectively by adjusting the cell concentration to 1×10^8.
The two kinds of cells were mixed equivalently to prepare a mixed cell suspension. Each acceptor mouse was intravenously injected with 0.5 ml of the suspension.
Mice were randomly divided into 3 groups with 10 mice in each group. Mice were administered once daily from the first day when the bone marrow transplantation was carried out.
Y-31 group (1.5 mg/kg/d, intraperitoneal injection)
(1) Body weight: weighted once daily;
(2) The survival time of the mice after BMT was recorded.

[6] = 0.5 h after administration, individual animals
[7] = 2.0 h after administration, individual animals
[8] = 5.0 h after administration, individual animals
[9] = 12 h after administration, individual animals
[10] = 48 h after administration, individual animals

## CO[C@H]1C[C@@H]2CC[C@@H](C)[C@@](O)(O2)C(=O)C(=O)N2CCCC[C@H]2C(=O)O[C@H]([C@H](C)C[C@@H]2CC[C@@H](O)[C@H](OC)C2)CC(=O)[C@H](C)/C=C(\C)[C@@H](O)[C@@H](OC)C(=O)[C@H](C)C[C@H](C)/C=C/C=C/C=C/1C [Rapamycin]
[1]; 0.1342 nM
  CPM Mean value: 4788
  inhibition at 0.0001342 µM: 35%
[1]; 0.3355 nM
  CPM Mean value: 3157
  inhibition at 0.0003355 µM: 57%
[1]; 0.8389 nM
  CPM Mean value: 1955
  inhibition at 0.0008389 µM: 73%
[1]; 2.0972 nM
  CPM Mean value: 1638
  inhibition at 0.0020972 µM: 78%
[1]; 32.768 nM
  CPM Mean value: 956
  inhibition at 0.032768 µM: 87%
[1]; 81.9 nM
  CPM Mean value: 1012
  inhibition at 0.0819 µM: 86%
[1]; 204.8 nM
  CPM Mean value: 848
  inhibition at 0.2048 µM: 88%
[1]; 512 nM
  CPM Mean value: 1068
  inhibition at 0.512 µM: 85%
[1]; 1280 nM
  CPM Mean value: 967
  inhibition at 1.28 µM: 87%
[1]; 3200 nM
  CPM Mean value: 840
  inhibition at 3.2 µM: 89%
[1]; 8000 nM
  CPM Mean value: 780
  inhibition at 8 µM: 89%
[1]; 20000 nM
  CPM Mean value: 362
  inhibition at 20 µM: 95%
[1]; 5.2429 nM
  inhibition at 0.0052429 µM: 83%
[1]; 13.107 nM
  inhibition at 0.013107 µM: 83%
[2]; nude, mouse, in vivo
  AUC0-t (ng · h/g or ng · h/ml): 1455 ng·h/mL
[2]; nude, mouse, in vivo, 0.5 h
  Sirolimus concentration, Liver, Mean Value: 473 ng/g
  Sirolimus concentration, Tumor, Mean Value: 20.6 ng/g
[2]; nude, mouse, in vivo, 2 h
  Sirolimus concentration, Blood Plasma, Mean Value: 121 ng/mL
  Sirolimus concentration, Liver, Mean Value: 193 ng/g
  Sirolimus concentration, Tumor, Mean Value: 50.8 ng/g
[2]; nude, mouse, in vivo, 5 h
  Sirolimus concentration, Blood Plasma, Mean Value: 84.7 ng/mL
  Sirolimus concentration, Liver, Mean Value: 139 ng/g
  Sirolimus concentration, Tumor, Mean Value: 41.7 ng/g
[2]; nude, mouse, in vivo, 12 h
  Sirolimus concentration, Liver, Mean Value: 54.2 ng/g
  Sirolimus concentration, Tumor, Mean Value: 33.2 ng/g
[2]; nude, mouse, in vivo, 48 h
  Sirolimus concentration, Blood Plasma, Mean Value: 4.04 ng/mL
  Sirolimus concentration, Liver, Mean Value: 15.8 ng/g
  Sirolimus concentration, Tumor, Mean Value: 25.9 ng/g
[3]
  average ear swelling degree: 0.076 mm
[4]; Table 3, 2.5 mg/kg p.o
  Body Weight (g) end: 21.8 g
  Body Weight (g) start: 19.8 g
  RTV: 3.03 ± 1.5
  T/C (%): 46.5%
  TV (mm3) d21: 277 ± 98 mm3
  TV (mm3) d0: 100 ± 39 mm3
[4]; Table 3, 5 mg/kg p.o
  Body Weight (g) end: 22.2 g
  Body Weight (g) start: 22.2 g
  RTV: 2.0 ± 1.2
  T/C (%): 30.9%
  TV (mm3) d21: 170 ± 88 mm3
  TV (mm3) d0: 96 ± 38 mm3

## CO[C@H]1C[C@@H]2CC[C@@H](C)[C@@](O)(O2)C(=O)C(=O)N2CCCC[C@H]2C(=O)O[C@H]([C@H](C)C[C@@H]2CC[C@@H](OC(=O)OCC(O)CO)[C@H](OC)C2)CC(=O)[C@H](C)/C=C(\C)[C@@H](O)[C@@H](OC)C(=O)[C@H](C)C[C@H](C)/C=C/C=C/C=C/1C (stereo partly drawn) [Y31]
[1]; 0.1342 nM
  CPM Mean value: 1338
  inhibition at 0.0001342 µM: 82%
[1]; 0.3355 nM
  CPM Mean value: 1296
  inhibition at 0.0003355 µM: 82%
[1]; 0.8389 nM
  CPM Mean value: 1202
  inhibition at 0.0008389 µM: 84%
[1]; 2.0972 nM
  CPM Mean value: 1137
  inhibition at 0.0020972 µM: 85%
[1]; 5.2429 nM
  CPM Mean value: 1131
  inhibition at 0.0052429 µM: 85%
[1]; 13.107 nM
  CPM Mean value: 1137
  inhibition at 0.013107 µM: 85%
[1]; 32.768 nM
  CPM Mean value: 1189
  inhibition at 0.032768 µM: 84%
[1]; 81.9 nM
  CPM Mean value: 1314
  inhibition at 0.0819 µM: 82%
[1]; 204.8 nM
  CPM Mean value: 1090
  inhibition at 0.2048 µM: 85%
[1]; 512 nM
  CPM Mean value: 1436
  inhibition at 0.512 µM: 80%
[1]; 1280 nM
  CPM Mean value: 1209
  inhibition at 1.28 µM: 84%
[1]; 3200 nM
  CPM Mean value: 1132
  inhibition at 3.2 µM: 85%
[1]; 8000 nM
  CPM Mean value: 1190
  inhibition at 8 µM: 84%
[1]; 20000 nM
  CPM Mean value: 815
  inhibition at 20 µM: 89%
[2]; [6]
  Y31 (prototype) concentration, Blood Plasma: 2.47 ng/mL and 3.03 ng/mL
  Y31 (prototype) concentration, Liver: 14.3 ng/g and 6.24 ng/g and 8.61 ng/g
  Y31 (prototype) concentration, Tumor: BLQ (BLQ: below the limit of Quantitation, 0.2 ng/ml (blood plasma); 1.0 ng/g(tissue))
[2]; [7]
  Y31 (prototype) concentration, Blood Plasma: 0.70 ng/mL and 0.58 ng/mL and 0.20 ng/mL
  Y31 (prototype) concentration, Liver: 13.4 ng/g and 17.4 ng/g
  Y31 (prototype) concentration, Tumor: BLQ (BLQ: below the limit of Quantitation, 0.2 ng/ml (blood plasma); 1.0 ng/g(tissue))
[2]; [8]
  Y31 (prototype) concentration, Blood Plasma: BLQ (BLQ: below the limit of Quantitation, 0.2 ng/ml (blood plasma))
  Y31 (prototype) concentration, Liver: 0.88 ng/g and 0.91 ng/g and 2.16 ng/g
  Y31 (prototype) concentration, Tumor: BLQ (BLQ: below the limit of Quantitation, 0.2 ng/ml (blood plasma); 1.0 ng/g(tissue))
[2]; [9]
  Y31 (prototype) concentration, Blood Plasma: BLQ (BLQ: below the limit of Quantitation, 0.2 ng/ml (blood plasma))
  Y31 (prototype) concentration, Liver: BLQ (BLQ: below the limit of Quantitation, 0.2 ng/ml (blood plasma); 1.0 ng/g(tissue))
  Y31 (prototype) concentration, Tumor: BLQ (BLQ: below the limit of Quantitation, 0.2 ng/ml (blood plasma); 1.0 ng/g(tissue))
[2]; [10]
  Y31 (prototype) concentration, Blood Plasma: BLQ (BLQ: below the limit of Quantitation, 0.2 ng/ml (blood plasma))
  Y31 (prototype) concentration, Liver: BLQ (BLQ: below the limit of Quantitation, 0.2 ng/ml (blood plasma); 1.0 ng/g(tissue))
  Y31 (prototype) concentration, Tumor: BLQ (BLQ: below the limit of Quantitation, 0.2 ng/ml (blood plasma); 1.0 ng/g(tissue))
[2]; after administration to nude mice
  maximum concentration of the prototype drug in blood plasma and tissues: less than 20 ng/ml or ng/g
[2]; blood plasma and tissues
  prototype drug 5 hours after the administration: not detectable
[2]; nude, mouse, liver, 0.5 h after administration, mean of 3 animals, read-out: Y31 (prototype) concentration, Liver, Mean Value
  concentration at 0.5 h: 9.72 ng/g
[2]; nude, mouse, liver, 2.0 h after administration, individual animals, read-out: Y31 (prototype) concentration, Liver
  concentration at 2 h: 12.4 ng/g
[2]; nude, mouse, liver, 2.0 h after administration, mean of 3 animals, read-out: Y31 (prototype) concentration, Liver, Mean Value
  concentration at 2 h: 14.4 ng/g
[2]; nude, mouse, liver, 5.0 h after administration, mean of 3 animals, read-out: Y31 (prototype) concentration, Liver, Mean Value
  concentration at 5 h: 1.32 ng/g
[2]; nude, mouse, plasma, 0.5 h after administration, individual animals, read-out: Y31 (prototype) concentration, Blood Plasma
  concentration at 0.5 h: 1.7 ng/mL
[2]; nude, mouse, plasma, 0.5 h after administration, mean of 3 animals, read-out: Y31 (prototype) concentration, Blood Plasma, Mean Value
  concentration at 0.5 h: 2.4 ng/mL
[2]; nude, mouse, plasma, 2.0 h after administration, mean of 3 animals, read-out: Y31 (prototype) concentration, Blood Plasma, Mean Value
  concentration at 2 h: 0.49 ng/mL
[2]; nude, mouse, plasma, 5.0 h after administration, individual animals, read-out: Y31 (prototype) concentration, Blood Plasma
  concentration at 5 h: 0.18 ng/mL
[2]; substance determined: Sirolimus, Liver
  AUC0-t (ng · h/g or ng · h/ml): 4031 ng·h/g
[2]; substance determined: Sirolimus, Tumor
  AUC0-t (ng · h/g or ng · h/ml): 2948 ng·h/g
[3]
  average ear swelling degree: 0.129 mm
[5]
  effect on the survival rate of the aGVHD mice: markedly increase the survival rate
  effect on the weight loss caused by aGVHD: significantly alleviate the weight loss
